The NIST ThermoML archive (doi:10.1021/je400274f)
Where “and” joins values, the source holds several entries; their conditions need not be identical. Identical values can stand only once. ± gives the expanded uncertainty stated by the source.

Settings: 101.33 kPa, Liquid; for viscosity: Concentric cylinders viscometry; for speed of sound: Pulse-echo method; for mass density: Vibrating tube method

| Structure (SMILES) | viscosity (283.15 K) [mPa·s] | speed of sound (283.15 K) [m/s] | mass density (283.15 K) | viscosity (293.15 K) [mPa·s] | speed of sound (293.15 K) [m/s] | mass density (293.15 K) | viscosity (303.15 K) [mPa·s] | speed of sound (303.15 K) [m/s] | mass density (303.15 K) | viscosity (313.15 K) [mPa·s] | speed of sound (313.15 K) [m/s] | mass density (313.15 K) | viscosity (323.15 K) [mPa·s] | speed of sound (323.15 K) [m/s] | mass density (323.15 K) | viscosity (333.15 K) [mPa·s] | mass density (333.15 K) [kg/m3] | viscosity (343.15 K) [mPa·s] | mass density (343.15 K) [kg/m3] | viscosity (353.15 K) [mPa·s] | other results |
| --- | --- | --- | --- | --- | --- | --- | --- | --- | --- | --- | --- | --- | --- | --- | --- | --- | --- | --- | --- | --- | --- |
| CCCCCCCCC(C)C [2-methyldecane] | 1.37 ± 0.02 | 1295.5 ± 1.3 | 745.7 ± 0.3 kg/m3 and 745.8 ± 0.3 kg/m3 | 1.15 ± 0.04 | 1256.2 ± 1.3 | 738.4 ± 0.3 kg/m3 and 738.3 ± 0.3 kg/m3 | 0.977 ± 0.021 | 1217.1 ± 1.3 | 730.9 ± 0.3 kg/m3 | 0.83 ± 0.017 | 1178.8 ± 1.3 | 723.5 ± 0.3 kg/m3 and 723.2 ± 0.3 kg/m3 | 0.736 ± 0.015 | 1141 ± 1.3 | 715.9 ± 0.3 kg/m3 and 715.7 ± 0.3 kg/m3 | 0.647 ± 0.017 | 708.1 ± 0.3 | 0.575 ± 0.017 | 700.5 ± 0.3 | 0.514 ± 0.015 | mass density (353.15 K): 692.8 ± 0.4 kg/m3; viscosity (363.15 K): 0.464 ± 0.013 mPa·s; mass density (363.15 K): 684.9 ± 0.4 kg/m3; viscosity (373.15 K): 0.422 ± 0.011 mPa·s; mass density (373.15 K): 677 ± 0.4 kg/m3 |
| CCCCCCCC(C)C [2-methylnonane] | 1.037 ± 0.022 | 1271.4 ± 1.5 | 734.7 ± 0.4 kg/m3 and 734.5 ± 0.3 kg/m3 | 0.887 ± 0.02 | 1231.1 ± 1.5 | 726.9 ± 0.3 kg/m3 and 727.1 ± 0.4 kg/m3 | 0.768 ± 0.017 | 1191.3 ± 1.5 | 719.3 ± 0.3 kg/m3 and 719.4 ± 0.4 kg/m3 | 0.653 ± 0.015 | 1152 ± 1.5 | 711.6 ± 0.3 kg/m3 and 711.7 ± 0.4 kg/m3 | 0.595 ± 0.013 | 1113.4 ± 1.5 | 703.9 ± 0.3 kg/m3 and 703.9 ± 0.4 kg/m3 | 0.529 ± 0.012 | 696 ± 0.4 | 0.475 ± 0.011 | 688.1 ± 0.4 | 0.428 ± 0.01 | mass density (353.15 K): 680.2 ± 0.4 kg/m3; viscosity (363.15 K): 0.388 ± 0.009 mPa·s; mass density (363.15 K): 672.1 ± 0.4 kg/m3; viscosity (373.15 K): 0.355 ± 0.009 mPa·s; mass density (373.15 K): 664 ± 0.4 kg/m3 |
| CCCCCCC(C)C [2-methyloctane] | 0.776 ± 0.017 | 1242.2 ± 1.5 | 723.2 ± 0.5 kg/m3 and 723.2 ± 0.3 kg/m3 | 0.676 ± 0.015 | 1201.3 ± 1.5 | 715.4 ± 0.3 kg/m3 and 715.3 ± 0.4 kg/m3 | 0.594 ± 0.013 | 1160.7 ± 1.5 | 707.6 ± 0.3 kg/m3 and 707.4 ± 0.4 kg/m3 | 0.499 ± 0.011 | 1120.7 ± 1.5 | 699.6 ± 0.3 kg/m3 and 699.4 ± 0.4 kg/m3 | 0.47 ± 0.011 | 1081.2 ± 1.5 | 691.6 ± 0.4 kg/m3 and 691.4 ± 0.4 kg/m3 | 0.422 ± 0.01 | 683.3 ± 0.4 | 0.381 ± 0.009 | 675.1 ± 0.4 | 0.345 ± 0.008 | mass density (353.15 K): 666.7 ± 0.4 kg/m3; viscosity (363.15 K): 0.315 ± 0.008 mPa·s; mass density (363.15 K): 658.2 ± 0.4 kg/m3; viscosity (373.15 K): 0.288 ± 0.008 mPa·s; mass density (373.15 K): 649.7 ± 0.5 kg/m3 |
| CCCCCCCCCCCCCC(C)C [2-methylpentadecane] | 4.6 ± 0.29 | 1378.7 ± 6.1 | 782.2 ± 4.9 kg/m3 and 781.8 ± 4.9 kg/m3 | 3.52 ± 0.24 | 1341 ± 6.1 | 774.9 ± 4.9 kg/m3 and 775 ± 4.9 kg/m3 | 2.77 ± 0.16 | 1303.8 ± 6.1 | 767.9 ± 4.8 kg/m3 and 768 ± 4.8 kg/m3 | 2.24 ± 0.16 | 1267.3 ± 6.1 | 761 ± 4.7 kg/m3 | 1.85 ± 0.11 | 1231.6 ± 6.1 | 754.1 ± 4.6 kg/m3 and 754 ± 4.6 kg/m3 | 1.55 ± 0.08 | 747 ± 4.5 | 1.33 ± 0.06 | 740 ± 4.5 | 1.14 ± 0.07 | mass density (353.15 K): 733 ± 4.4 kg/m3; viscosity (363.15 K): 1 ± 0.05 mPa·s; mass density (363.15 K): 726 ± 4.3 kg/m3; viscosity (373.15 K): 0.88 ± 0.03 mPa·s; mass density (373.15 K): 718.9 ± 4.2 kg/m3 |
| CCC(C)CC(C)CC (centres undefined) [3,5-dimethylheptane] | 0.792 ± 0.018 | 1245.1 ± 1.9 | 734.1 ± 0.5 kg/m3 and 734 ± 0.4 kg/m3 | 0.688 ± 0.016 | 1203.3 ± 1.9 | 726.2 ± 0.4 kg/m3 and 726.3 ± 0.5 kg/m3 | 0.604 ± 0.014 | 1162 ± 1.9 | 718.4 ± 0.4 kg/m3 and 718.4 ± 0.5 kg/m3 | 0.508 ± 0.012 | 1121.3 ± 1.9 | 710.5 ± 0.4 kg/m3 and 710.5 ± 0.5 kg/m3 | 0.477 ± 0.012 | 1081.4 ± 1.9 | 702.5 ± 0.4 kg/m3 and 702.5 ± 0.5 kg/m3 | 0.428 ± 0.01 | 694.5 ± 0.5 | 0.386 ± 0.01 | 686.3 ± 0.5 | 0.35 ± 0.01 | mass density (353.15 K): 678 ± 0.5 kg/m3; viscosity (363.15 K): 0.319 ± 0.008 mPa·s; mass density (363.15 K): 669.7 ± 0.5 kg/m3; mass density (373.15 K): 661.2 ± 0.5 kg/m3 |
| CCC(C)CCC(C)CC (centres undefined) [3,6-dimethyloctane] | 0.988 ± 0.022 | 1277.8 ± 1.7 | 746.6 ± 0.4 kg/m3 and 746.6 ± 0.5 kg/m3 | 0.846 ± 0.018 | 1236.7 ± 1.7 | 738.9 ± 0.5 kg/m3 and 738.9 ± 0.4 kg/m3 | 0.733 ± 0.016 | 1196.2 ± 1.7 | 731.2 ± 0.5 kg/m3 and 731.1 ± 0.4 kg/m3 | 0.62 ± 0.014 | 1156.3 ± 1.9 | 723.5 ± 0.6 kg/m3 and 723.3 ± 0.4 kg/m3 | 0.568 ± 0.014 | 1117.2 ± 1.7 | 715.7 ± 0.6 kg/m3 and 715.5 ± 0.4 kg/m3 | 0.506 ± 0.012 | 707.6 ± 0.4 | 0.453 ± 0.01 | 699.6 ± 0.4 | 0.409 ± 0.01 | mass density (353.15 K): 691.5 ± 0.4 kg/m3; viscosity (363.15 K): 0.372 ± 0.01 mPa·s; mass density (363.15 K): 683.3 ± 0.4 kg/m3; viscosity (373.15 K): 0.328 ± 0.008 mPa·s; mass density (373.15 K): 674.9 ± 0.5 kg/m3 |
| CCCCCCCCC(C)CC (centres undefined) [3-methylundecane] | 1.73 ± 0.03 | 1330.2 ± 2.3 | 758.6 ± 0.6 kg/m3 and 758.3 ± 0.6 kg/m3 | 1.43 ± 0.03 | 1291 ± 2.3 | 751.1 ± 0.6 kg/m3 and 751.3 ± 0.6 kg/m3 | 1.2 ± 0.02 | 1252.2 ± 2.3 | 743.9 ± 0.6 kg/m3 and 744 ± 0.6 kg/m3 | 1.01 ± 0.02 | 1214 ± 2.3 | 736.6 ± 0.6 kg/m3 and 736.7 ± 0.6 kg/m3 | 0.883 ± 0.021 | 1176.6 ± 2.3 | 729.3 ± 0.6 kg/m3 | 0.771 ± 0.019 | 721.9 ± 0.6 | 0.68 ± 0.017 | 714.4 ± 0.6 | 0.605 ± 0.014 | mass density (353.15 K): 707 ± 0.6 kg/m3; viscosity (363.15 K): 0.543 ± 0.012 mPa·s; mass density (363.15 K): 699.4 ± 0.6 kg/m3; viscosity (373.15 K): 0.492 ± 0.012 mPa·s; mass density (373.15 K): 691.9 ± 0.6 kg/m3 |
| CCCCC(C)CCC (centres undefined) [4-methyloctane] | 0.719 ± 0.021 | 1254.9 ± 1.5 | 727.5 ± 0.4 kg/m3 and 727.6 ± 0.3 kg/m3 | 0.628 ± 0.021 | 1213 ± 1.5 | 719.8 ± 0.3 kg/m3 and 719.7 ± 0.4 kg/m3 | 0.554 ± 0.021 | 1171.6 ± 1.5 | 711.9 ± 0.3 kg/m3 and 711.7 ± 0.4 kg/m3 | 0.453 ± 0.08 | 1130.8 ± 1.5 | 703.9 ± 0.3 kg/m3 and 703.7 ± 0.4 kg/m3 | 0.441 ± 0.021 | 1090.7 ± 1.5 | 695.9 ± 0.3 kg/m3 and 695.7 ± 0.4 kg/m3 | 0.397 ± 0.021 | 687.5 ± 0.4 | 0.368 ± 0.06 | 679.3 ± 0.4 | 0.329 ± 0.04 | mass density (353.15 K): 671 ± 0.4 kg/m3; viscosity (363.15 K): 0.294 ± 0.04 mPa·s; mass density (363.15 K): 662.5 ± 0.4 kg/m3; viscosity (373.15 K): 0.261 ± 0.04 mPa·s; mass density (373.15 K): 653.9 ± 0.4 kg/m3 |
| CCCCCCCCCC(C)CCCCCC (centres undefined) [7-methylhexadecane] | 5.36 ± 0.52 | 1392.5 ± 2.3 | 787.6 ± 0.6 kg/m3 | 4 ± 0.4 | 1354.9 ± 2.3 | 780.7 ± 0.6 kg/m3 | 3.09 ± 0.28 | 1317.7 ± 2.3 | 773.9 ± 0.6 kg/m3 and 773.8 ± 0.6 kg/m3 | 2.47 ± 0.22 | 1281.3 ± 2.3 | 767 ± 0.6 kg/m3 and 766.9 ± 0.6 kg/m3 | 2 ± 0.18 | 1245.5 ± 2.3 | 760.2 ± 0.6 kg/m3 and 760 ± 0.6 kg/m3 | 1.66 ± 0.16 | 753.1 ± 0.6 | 1.41 ± 0.12 | 746.2 ± 0.6 | 1.21 ± 0.08 | mass density (353.15 K): 739.3 ± 0.6 kg/m3; viscosity (363.15 K): 1.05 ± 0.08 mPa·s; mass density (363.15 K): 732.4 ± 0.6 kg/m3; viscosity (373.15 K): 0.91 ± 0.05 mPa·s; mass density (373.15 K): 725.4 ± 0.6 kg/m3 |
